{
  "source": "patent US20260083865A1",
  "about": "“PROSTATE SPECIFIC MEMBRANE ANTIGEN (PSMA) LIGANDS AND USE THEREOF” (priority 2022, published 2026)",
  "key": {"[1]": {"target": "T1, Fc-fusion protein of human PSMA (hPSMA-Fc) (Homo sapiens, UniProt Q04609)", "T1 construct": "purchased Acro Biosystems PSA-H5264", "T1 sequence (Q04609 44-750 limits assumed)": "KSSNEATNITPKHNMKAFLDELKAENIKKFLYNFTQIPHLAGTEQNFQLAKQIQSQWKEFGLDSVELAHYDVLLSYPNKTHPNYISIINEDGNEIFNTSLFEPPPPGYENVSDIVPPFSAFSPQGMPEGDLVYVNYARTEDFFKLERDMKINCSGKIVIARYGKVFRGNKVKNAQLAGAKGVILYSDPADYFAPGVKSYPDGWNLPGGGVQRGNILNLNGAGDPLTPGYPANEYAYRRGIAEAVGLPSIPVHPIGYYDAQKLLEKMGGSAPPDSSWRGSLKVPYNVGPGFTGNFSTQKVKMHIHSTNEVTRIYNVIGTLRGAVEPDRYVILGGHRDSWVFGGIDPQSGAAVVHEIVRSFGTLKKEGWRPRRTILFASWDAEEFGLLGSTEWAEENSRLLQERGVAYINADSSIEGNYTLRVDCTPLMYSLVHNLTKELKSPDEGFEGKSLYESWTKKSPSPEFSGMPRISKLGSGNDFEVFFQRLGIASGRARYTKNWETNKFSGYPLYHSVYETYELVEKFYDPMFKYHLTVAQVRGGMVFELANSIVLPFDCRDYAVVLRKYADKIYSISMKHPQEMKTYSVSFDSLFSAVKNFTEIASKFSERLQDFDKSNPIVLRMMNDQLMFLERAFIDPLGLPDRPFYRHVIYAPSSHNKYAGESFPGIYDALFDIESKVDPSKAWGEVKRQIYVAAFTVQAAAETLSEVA", "test": "Surface plasmon resonance assay (Biacore T200, single cycle kinetic)", "type": "binding", "details": "pKD category for PSMA SPR activity assay, hPSMA-Fc, 25° C.; read-out: pKD CAT (converted)", "method_in_brief": "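KD, expressed as pKD, came from 1:1 Langmuir fits of reference- and buffer-blank-subtracted SPR data. The runs were single-cycle kinetics at 25° C in HBST/0.1% DMSO over human PSMA-Fc, captured to ~1000 RU on a peptide-coated CM5 surface and regenerated with 10 mM glycine pH 1.5.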"}, "[2]": {"target": "T2, PSMA-expressing C4-2 cells (Homo sapiens, UniProt Q04609)", "T2 construct": "PSMA-expressing C4-2 cells (ATCC, Cat. No. CRL-3314) were cultured in RPMI-1640; host or cells: C4-2 cells", "T2 sequence (Q04609 whole entry)": "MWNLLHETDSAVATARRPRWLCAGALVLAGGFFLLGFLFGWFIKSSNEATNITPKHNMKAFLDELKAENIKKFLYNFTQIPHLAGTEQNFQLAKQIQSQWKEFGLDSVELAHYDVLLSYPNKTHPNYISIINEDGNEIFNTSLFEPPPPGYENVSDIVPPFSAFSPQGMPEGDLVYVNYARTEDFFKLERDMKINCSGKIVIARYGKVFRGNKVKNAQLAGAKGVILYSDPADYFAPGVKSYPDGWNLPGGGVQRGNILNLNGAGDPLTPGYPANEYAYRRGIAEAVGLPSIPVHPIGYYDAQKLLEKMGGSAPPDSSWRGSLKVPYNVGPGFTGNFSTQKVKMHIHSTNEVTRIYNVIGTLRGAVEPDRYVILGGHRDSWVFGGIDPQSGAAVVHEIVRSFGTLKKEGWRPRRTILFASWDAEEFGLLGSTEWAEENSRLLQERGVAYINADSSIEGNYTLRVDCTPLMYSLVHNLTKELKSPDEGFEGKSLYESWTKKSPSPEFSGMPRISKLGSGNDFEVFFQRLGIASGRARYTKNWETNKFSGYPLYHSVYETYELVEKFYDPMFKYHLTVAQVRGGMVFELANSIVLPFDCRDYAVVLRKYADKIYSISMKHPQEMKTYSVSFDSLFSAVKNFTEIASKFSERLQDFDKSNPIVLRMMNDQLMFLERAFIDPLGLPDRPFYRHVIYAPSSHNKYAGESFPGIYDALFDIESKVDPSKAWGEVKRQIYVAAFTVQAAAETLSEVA", "test": "FACS binding assay (competition with 50 nM PSM-0183)", "details": "pIC50 category of FACS binding, C4-2 cells; read-out: pIC50 [C4-2] CAT (converted)", "method_in_brief": "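Competition format: fluorescent tracer PSM-0183 (50 nM) displaced from PSMA on C4-2 cells by a test compound titration over 1 h at 4 °C. Bound tracer was quantified as flow-cytometric AF488 median fluorescence after washing. Four-parameter logistic fits of MFI data gave IC50 and pIC50.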"}},
  "note": "Numbered stars: 1 amine (or outer) side, 2 acyl side, 3 side chain; on linkers, the order of the positions; unused ones are H or OH. Bridge positions count the residues as written; N and C are the ends. Square brackets hold non-standard residues; d marks the D form. Peptide text beside a SMILES is read from it. * marks the point of attachment. DOTA = O=C(O)CN1CCN(CC(=O)O)CCN(CC(=O)*)CCN(CC(=O)O)CC1; Trp(5-Cl) = N[C@@H](Cc1c[nH]c2ccc(Cl)cc12)C(=O)O; Phe(4-Cl) = N[C@@H](Cc1ccc(Cl)cc1)C(=O)O; Phe(3-Me) = Cc1cccc(C[C@H](N)C(=O)O)c1; Arg(Me) = CNC(=N)NCCC[C@H](N)C(=O)O; hPhe = N[C@@H](CCc1ccccc1)C(=O)O; 2Pal = N[C@@H](Cc1ccccn1)C(=O)O; X1 = O=C(CC1CCN([*:1])CC1)[*:2]; Cit = NC(=O)NCCC[C@H](N)C(=O)O; Lys(Me) = CNCCCC[C@H](N)C(=O)O; Tle = CC(C)(C)[C@H](N)C(=O)O; αMeS = C[C@](N)(CO)C(=O)O; Aib = CC(C)(N)C(=O)O; Sar = CNCC(=O)O",
  "data": [
    {"compound": "C[C@@H](O)[C@H](NC(=O)[C@@H](NC(=O)[C@@H]1CSSC[C@H](NC(=O)[C@H](Cc2c[nH]c3ccc(Cl)cc23)NC(=O)C(C)(C)NC(=O)[C@@H](NC(=O)CC2CCN(C(=O)CN3CCN(CC(=O)O)CCN(CC(=O)O)CCN(CC(=O)O)CC3)CC2)[C@@H](C)O)C(=O)N[C@@H](CCCCN)C(=O)N[C@@H](CCCNC(N)=O)C(=O)NC(C)(C)C(=O)N[C@@H](CC(N)=O)C(=O)N1)C(C)(C)C)C(N)=O", "note": "[PSM-0406, DOTA-Cmp-Thr-Aib-5Clw-[Cys-Lys-Cit-Aib-Asn-Cys]-Tle-Thr-NH2] ({DOTA}-[X1]T[Aib][Trp(5-Cl)]CK[Cit][Aib]NC[Tle]T-NH2; disulfide 5-10)", "values": [
      {"measurement": "Kd", "setting": "[1]", "value": "> 501", "unit": "nM"},
      {"measurement": "IC50", "setting": "[2]", "value": "1260 to 3160", "unit": "nM"}
    ]},
    {"compound": "C[C@@H](O)[C@H](NC(=O)[C@@H](NC(=O)[C@@H]1CSSC[C@H](NC(=O)[C@H](Cc2ccc(Cl)cc2)NC(=O)[C@](C)(CO)NC(=O)[C@@H](NC(=O)CC2CCN(C(=O)CN3CCN(CC(=O)O)CCN(CC(=O)O)CCN(CC(=O)O)CC3)CC2)[C@@H](C)O)C(=O)N[C@@H](CCCCN)C(=O)N[C@@H](CCCNC(=N)N)C(=O)N[C@@](C)(CO)C(=O)N[C@@H](CC(N)=O)C(=O)N1)C(C)(C)C)C(N)=O", "note": "[PSM-0407, DOTA-Cmp-Thr-Ams-Pcf-[Cys-Lys-Arg-Ams-Asn-Cys]-Tle-Thr-NH2] ({DOTA}-[X1]T[αMeS][Phe(4-Cl)]CKR[αMeS]NC[Tle]T-NH2; disulfide 5-10)", "values": [
      {"measurement": "Kd", "setting": "[1]", "value": "< 12.6", "unit": "nM"},
      {"measurement": "IC50", "setting": "[2]", "value": "< 200", "unit": "nM"}
    ]},
    {"compound": "CC(=O)N[C@H](C(=O)N(C)CC(=O)N[C@@H](Cc1ccccc1)C(=O)N[C@H]1CSSC[C@@H](C(=O)N[C@H](C(=O)N[C@H](C(N)=O)[C@@H](C)O)C(C)(C)C)NC(=O)[C@H](CC(N)=O)NC(=O)C(C)(C)NC(=O)[C@H](CCCNC(=N)N)NC(=O)[C@H](CCCCN)NC1=O)[C@@H](C)O", "note": "[PSM-0408, Ac-Thr-Nmg-Phe-[Cys-Lys-Arg-Aib-Asn-Cys]-Tle-Thr-NH2] (Ac-T[Sar]FCKR[Aib]NC[Tle]T-NH2; disulfide 4-9)", "values": [
      {"measurement": "Kd", "setting": "[1]", "value": "126 to 501", "unit": "nM"},
      {"measurement": "IC50", "setting": "[2]", "value": "200 to 1260", "unit": "nM"}
    ]},
    {"compound": "CNCCCC[C@@H]1NC(=O)[C@@H](NC(=O)[C@H](Cc2ccccn2)NC(=O)C(C)(C)NC(=O)[C@@H](NC(=O)CC2CCN(C(=O)CN3CCN(CC(=O)O)CCN(CC(=O)O)CCN(CC(=O)O)CC3)CC2)[C@@H](C)O)CSSC[C@@H](C(=O)N[C@H](C(N)=O)C(C)(C)C)NC(=O)[C@H](CC(N)=O)NC(=O)C(C)(C)NC(=O)[C@H](CCCNC(=N)NC)NC1=O", "note": "[PSM-0409, DOTA-Cmp-Thr-Aib-Opa-[Cys-Lys(Me)-Arg(Me)-Aib-Asn-Cys]-Tle-NH2] ({DOTA}-[X1]T[Aib][2Pal]C[Lys(Me)][Arg(Me)][Aib]NC[Tle]-NH2; disulfide 5-10)", "values": [
      {"measurement": "Kd", "setting": "[1]", "value": "126 to 501", "unit": "nM"},
      {"measurement": "IC50", "setting": "[2]", "value": "200 to 1260", "unit": "nM"}
    ]},
    {"compound": "CNCCCC[C@@H]1NC(=O)[C@@H](NC(=O)[C@H](Cc2ccc(Cl)cc2)NC(=O)C(C)(C)NC(=O)[C@@H](NC(=O)CC2CCN(C(=O)CN3CCN(CC(=O)O)CCN(CC(=O)O)CCN(CC(=O)O)CC3)CC2)[C@@H](C)O)CSSC[C@@H](C(=O)N[C@H](C(=O)N[C@H](C(N)=O)[C@@H](C)O)C(C)(C)C)NC(=O)[C@H](CC(N)=O)NC(=O)C(C)(C)NC(=O)[C@H](CCCNC(=N)N)NC1=O", "note": "[PSM-0410, DOTA-Cmp-Thr-Aib-Pcf-[Cys-Lys(Me)-Arg-Aib-Asn-Cys]-Tle-Thr-NH2] ({DOTA}-[X1]T[Aib][Phe(4-Cl)]C[Lys(Me)]R[Aib]NC[Tle]T-NH2; disulfide 5-10)", "values": [
      {"measurement": "Kd", "setting": "[1]", "value": "< 12.6", "unit": "nM"},
      {"measurement": "IC50", "setting": "[2]", "value": "< 200", "unit": "nM"}
    ]},
    {"compound": "CC(=O)N[C@H](C(=O)NC(C)(C)C(=O)N[C@@H](CCc1ccccc1)C(=O)N[C@H]1CSSC[C@@H](C(=O)N[C@H](C(=O)N[C@H](C(N)=O)[C@@H](C)O)C(C)(C)C)NC(=O)[C@H](CC(N)=O)NC(=O)C(C)(C)NC(=O)[C@H](CCCNC(=N)N)NC(=O)[C@H](CCCCN)NC1=O)[C@@H](C)O", "note": "[PSM-0411, Ac-Thr-Aib-Hfe-[Cys-Lys-Arg-Aib-Asn-Cys]-Tle-Thr-NH2] (Ac-T[Aib][hPhe]CKR[Aib]NC[Tle]T-NH2; disulfide 4-9)", "values": [
      {"measurement": "Kd", "setting": "[1]", "value": "< 12.6", "unit": "nM"},
      {"measurement": "IC50", "setting": "[2]", "value": "< 200", "unit": "nM"}
    ]},
    {"compound": "CC(=O)N[C@H](C(=O)NC(C)(C)C(=O)N[C@@H](Cc1cccc(C)c1)C(=O)N[C@H]1CSSC[C@@H](C(=O)N[C@H](C(=O)N[C@H](C(N)=O)[C@@H](C)O)C(C)(C)C)NC(=O)[C@H](CC(N)=O)NC(=O)C(C)(C)NC(=O)[C@H](CCCNC(=N)N)NC(=O)[C@H](CCCCN)NC1=O)[C@@H](C)O", "note": "[PSM-0412, Ac-Thr-Aib-Mmf-[Cys-Lys-Arg-Aib-Asn-Cys]-Tle-Thr-NH2] (Ac-T[Aib][Phe(3-Me)]CKR[Aib]NC[Tle]T-NH2; disulfide 4-9)", "values": [
      {"measurement": "Kd", "setting": "[1]", "value": "< 12.6", "unit": "nM"},
      {"measurement": "IC50", "setting": "[2]", "value": "< 200", "unit": "nM"}
    ]}
  ]
}
